How the values were obtained:
SNK-6 (IL-2 2.5 ng/mL) [1] = assay: drug sensitivity score (DSS) (DSS units); higher = more sensitive; extreme values may be limits of the assay; details: 72 h
KAI3 (IL-2 2.5 ng/mL) [2] = assay: as above; details: 72 h
[3] = tested on: normal primary NK cells, pool 3 (3 donors) (IL-2 2.5 ng/mL); assay: as above; details: 72 h
NK-YS (IL-2 2.5 ng/mL) [4] = assay: as above; details: 72 h
[5] = tested on: normal primary NK cells, pool 2 (3 donors) (IL-2 2.5 ng/mL); assay: as above; details: 72 h
KHYG-1 (IL-2 2.5 ng/mL) [6] = assay: as above; details: 72 h
DERL-7 (IL-2 2.5 ng/mL) [7] = assay: as above; details: 72 h
NK-92 (IL-2 2.5 ng/mL) [8] = assay: as above; details: 72 h
[9] = tested on: normal primary NK cells, pool 1 (3 donors) (IL-2 2.5 ng/mL); assay: as above; details: 72 h
[10] = tested on: normal primary NK cells, pool 1 (3 donors), resting (IL-2 0 ng/mL); assay: as above; details: 72 h
IMC-1 (IL-2 20 ng/mL) [11] = assay: as above; details: 72 h
YT (IL-2 2.5 ng/mL) [12] = assay: as above; details: 72 h
NKL (IL-2 2.5 ng/mL) [13] = assay: as above; details: 72 h
SNK-6 (IL-2 2.5 ng/mL) [14] = assay: percent inhibition of viability; higher = more inhibition; details: 72 h
KAI3 (IL-2 2.5 ng/mL) [15] = assay: as above; details: 72 h
[16] = tested on: normal primary NK cells, pool 3 (3 donors) (IL-2 2.5 ng/mL); assay: as above; details: 72 h
NK-YS (IL-2 2.5 ng/mL) [17] = assay: as above; details: 72 h
[18] = tested on: normal primary NK cells, pool 2 (3 donors) (IL-2 2.5 ng/mL); assay: as above; details: 72 h
KHYG-1 (IL-2 2.5 ng/mL) [19] = assay: as above; details: 72 h
DERL-7 (IL-2 2.5 ng/mL) [20] = assay: as above; details: 72 h
NK-92 (IL-2 2.5 ng/mL) [21] = assay: as above; details: 72 h
[22] = tested on: normal primary NK cells, pool 1 (3 donors) (IL-2 2.5 ng/mL); assay: as above; details: 72 h
[23] = tested on: normal primary NK cells, pool 1 (3 donors), resting (IL-2 0 ng/mL); assay: as above; details: 72 h
IMC-1 (IL-2 20 ng/mL) [24] = assay: as above; details: 72 h
YT (IL-2 2.5 ng/mL) [25] = assay: as above; details: 72 h
NKL (IL-2 2.5 ng/mL) [26] = assay: as above; details: 72 h
[27] = tested on: normal NK cells expanded with K562-aAPC; assay: drug sensitivity score (DSS) (DSS units); higher = more sensitive; extreme values may be limits of the assay; details: 72 h; IL-2 2.5 ng/mL
Method: (§1)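 Drug sensitivity and resistance testing on K562-aAPC-expanded normal NK cells: 5 concentrations (10-fold steps over a 10,000-fold range), 72 h at 37 °C, viability by CellTiter-Glo normalised to DMSO and benzethonium chloride controls; DSS from the fitted curve.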

[28] = tested on: normal NK cells expanded with K562-aAPC; assay: percent inhibition of viability; higher = more inhibition; details: 72 h, IL-2 2.5 ng/mL
Method: as §1

CN(C)C[C@@H]1CCn2cc(c3ccccc32)C2=C(C(=O)NC2=O)c2cn(c3ccccc23)CCO1 [Ruboxistaurin] (max concentration tested 10000 nM)
Details | drug sensitivity score
DERL-7 (IL-2 2.5 ng/mL) [7] | 10.5
IMC-1 (IL-2 20 ng/mL) [11] | 4.21
KAI3 (IL-2 2.5 ng/mL) [2] | 8.93
KHYG-1 (IL-2 2.5 ng/mL) [6] | 10.2
NK-92 (IL-2 2.5 ng/mL) [8] | 5.89
NK-YS (IL-2 2.5 ng/mL) [4] | 9.16
NKL (IL-2 2.5 ng/mL) [13] | 9.73
SNK-6 (IL-2 2.5 ng/mL) [1] | 6.19
YT (IL-2 2.5 ng/mL) [12] | 6.1
[3] | 7.99
[5] | 7.72
[9] | 9.78
[10] | 11.2
[27] | 9.52

percent inhibition of viability [%]
Details | 1 nM | 10 nM | 100 nM | 1000 nM | 10000 nM
DERL-7 (IL-2 2.5 ng/mL) [20] | -1.56 | 1.57 | 18.1 | 40.6 | 99.9
IMC-1 (IL-2 20 ng/mL) [24] | -5.42 | -4.44 | -4.88 | -32.9 | 100
KAI3 (IL-2 2.5 ng/mL) [15] | 0.82 | 1.03 | 11.8 | 32 | 93.8
KHYG-1 (IL-2 2.5 ng/mL) [19] | 1.18 | 0.63 | 1.33 | 34 | 98.9
NK-92 (IL-2 2.5 ng/mL) [21] | -3.12 | -11.3 | -3.13 | 2.96 | 98.9
NK-YS (IL-2 2.5 ng/mL) [17] | 0.95 | -3.62 | 0.25 | 24.6 | 97.6
NKL (IL-2 2.5 ng/mL) [26] | -0.55 | -7.15 | 3.58 | 36.2 | 93.1
SNK-6 (IL-2 2.5 ng/mL) [14] | -9.54 | 1.49 | -3.03 | 4.61 | 99.9
YT (IL-2 2.5 ng/mL) [25] | 0.39 | 0.99 | -3.02 | 5.34 | 96
[16] | -10.5 | -8.66 | 0.81 | 14.8 | 99.8
[18] | -17.6 | -5.86 | -4.21 | 13.1 | 100
[22] | -7.03 | -9.34 | 0.45 | 29 | 99.8
[23] | -16.4 | -10.1 | -8.8 | 45.3 | 99.1
[28] | -0.21 | -2.52 | 9.41 | 31.6 | 99.7

COc1ccc(S(=O)(=O)Nc2cccnc2Nc2ccc(O)cc2)cc1 [ABT-751] (max concentration tested 10000 nM)
Details | drug sensitivity score
DERL-7 (IL-2 2.5 ng/mL) [7] | 18.2
IMC-1 (IL-2 20 ng/mL) [11] | 18.5
KAI3 (IL-2 2.5 ng/mL) [2] | 13.8
KHYG-1 (IL-2 2.5 ng/mL) [6] | 20.6
NK-92 (IL-2 2.5 ng/mL) [8] | 21.4
NK-YS (IL-2 2.5 ng/mL) [4] | 16.3
NKL (IL-2 2.5 ng/mL) [13] | 15.4
SNK-6 (IL-2 2.5 ng/mL) [1] | 21.9
YT (IL-2 2.5 ng/mL) [12] | 20.3
[3] | 1.19
[5] | 0.52
[9] | 0.04
[10] | 5.02
[27] | 11.1

percent inhibition of viability [%]
Details | 1 nM | 10 nM | 100 nM | 1000 nM | 10000 nM
DERL-7 (IL-2 2.5 ng/mL) [20] | 5.8 | 5.64 | 3.05 | 99.1 | 99
IMC-1 (IL-2 20 ng/mL) [24] | 1.24 | 2.22 | 4.35 | 99.6 | 99.6
KAI3 (IL-2 2.5 ng/mL) [15] | 7.18 | 10.3 | 18.4 | 62.9 | 74.9
KHYG-1 (IL-2 2.5 ng/mL) [19] | -0.83 | 2.36 | 14.9 | 104 | 104
NK-92 (IL-2 2.5 ng/mL) [21] | 4.6 | 3.35 | 37.3 | 92.8 | 91.3
NK-YS (IL-2 2.5 ng/mL) [17] | -0.79 | 0.15 | 23.9 | 70.5 | 71.2
NKL (IL-2 2.5 ng/mL) [26] | -0.28 | -14.8 | -13.9 | 90.3 | 83.4
SNK-6 (IL-2 2.5 ng/mL) [14] | 3.22 | 10.5 | 50.7 | 81.7 | 89.2
YT (IL-2 2.5 ng/mL) [25] | 3.24 | 3.8 | 13.6 | 100 | 96.2
[16] | 4.41 | 1.96 | 4.78 | 13.2 | 16.7
[18] | 0.28 | 3.85 | 0.94 | 8.44 | 14.7
[22] | -9.52 | -12.6 | -7.29 | 0.64 | 11.6
[23] | 1.2 | -5.61 | -12 | 16.9 | 49.5
[28] | 2.34 | 4.2 | 3.33 | 57.7 | 58.5

CNC(=O)c1ccc(C)c(-n2c(C)cc(OCc3ccc(F)cc3F)c(Br)c2=O)c1 (max concentration tested 1000 nM)
Details | drug sensitivity score
DERL-7 (IL-2 2.5 ng/mL) [7] | 0
IMC-1 (IL-2 20 ng/mL) [11] | 0.02
KAI3 (IL-2 2.5 ng/mL) [2] | 4.23
KHYG-1 (IL-2 2.5 ng/mL) [6] | 0.02
NK-92 (IL-2 2.5 ng/mL) [8] | 1.12
NK-YS (IL-2 2.5 ng/mL) [4] | 2.15
NKL (IL-2 2.5 ng/mL) [13] | 5.52
SNK-6 (IL-2 2.5 ng/mL) [1] | 0
YT (IL-2 2.5 ng/mL) [12] | 0.89
[3] | 0
[5] | 0
[9] | 3.24
[10] | 0
[27] | 0

percent inhibition of viability [%]
Details | 0.1 nM | 1 nM | 10 nM | 100 nM | 1000 nM
DERL-7 (IL-2 2.5 ng/mL) [20] | -0.31 | -4.89 | -4.27 | 2.58 | 1.48
IMC-1 (IL-2 20 ng/mL) [24] | -9.65 | -8.9 | -7.96 | -3.82 | 12.4
KAI3 (IL-2 2.5 ng/mL) [15] | -0.38 | 1.93 | 8.49 | 20.8 | 36
KHYG-1 (IL-2 2.5 ng/mL) [19] | -4.44 | -7.81 | -8.38 | -3.53 | 12.3
NK-92 (IL-2 2.5 ng/mL) [21] | -1.67 | -6.84 | -3.84 | -1.12 | 28.7
NK-YS (IL-2 2.5 ng/mL) [17] | -6.34 | -5.21 | 0.76 | 7.92 | 26.5
NKL (IL-2 2.5 ng/mL) [26] | -10.5 | -7 | 9.32 | 26.1 | 43.8
SNK-6 (IL-2 2.5 ng/mL) [14] | -18.8 | -0.3 | -20.7 | -13.9 | -14.7
YT (IL-2 2.5 ng/mL) [25] | -3.68 | -3.72 | -2.87 | 1.27 | 21.9
[16] | -6.51 | -4.02 | 4.48 | 7.49 | 0.09
[18] | -5.3 | -4.39 | 0.85 | -1.04 | -5.85
[22] | 0.91 | 0.08 | 13.3 | 13.8 | 17.8
[23] | 4.88 | 3.54 | 13.7 | 4.12 | 7.14
[28] | -9.29 | -8.5 | -9.81 | -3.39 | 11.1

Reference: the supplement of paper PMC5908809
